The values that follow come from ChEMBL document CHEMBL1201862, “PubChem BioAssay data set” (2004).

Common to all, as to assay: NCI anticancer screen, dose series, 48 h
Test [1] has as its system NCI-H460.
Test [2] has as its system COLO 205.
Test [3] concerns NCI-H522.
For test [4], the system named is RXF 393.
Test [5] has as its system SW-620.
For test [6], the system named is SF-539.
The subject of test [7] is KM12.
In test [8] the test system is UACC-257.
Test [9] has as its system UO-31.
The subject of test [10] is ACHN.
The test system of test [11] is SF-295.
Test [12] has as its system TK-10.
Test [13] deals with SK-MEL-2.
The test system of test [14] is RPMI-8226.
The subject of test [15] is OVCAR-5.

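Compound exposure: 48 hours, 5 concentrations, 96-well plates. Here, GI50 denotes the concentration required for 50% inhibition of growth.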 Calls of active or inactive are those of the source. Cut-off read from the data, not from the text of the source: active = GI50 up to about 1.1 µM and inactive = higher.

In the case of `CC(Oc1ccc2c(-c3ccccc3)cc(=O)oc2c1)C(=O)O` (stereo unspecified), the GI50 in test [1], in [2], in [3], in test [4], in test [5] and in [6] was > 100 µM (inactive) throughout. Further, the GI50 in [7], in [8], in [9], in [10], in [11] and in test [12] was > 100 µM (inactive) throughout.
With `O=c1ccn([C@@H]2C[C@H](CO)C[S+]([O-])C2)c(=O)[nH]1` (stereo partly specified), the GI50 in test [1], in [2], in [3], in test [5], in [6] and in test [13] was > 100 µM (inactive) in each case. Also, the GI50 in [7], in test [8], in test [14], in test [9], in test [10] and in [11] was > 100 µM (inactive) throughout. Moreover, in [12], the GI50 was > 100 µM (inactive).
With `C=CC1(NS(=O)(=O)c2ccc(C)cc2)CCC(C(C)(C)C)CC1` (stereo unspecified), the GI50 is > 100 µM (inactive) in [1]; > 100 µM (inactive) in test [2]; 32.7 µM (inactive) in [3]; 8.97 µM (inactive) in test [4]; > 100 µM (inactive) in test [5]; 64 µM (inactive) in test [6]. In addition, the GI50 was 60.7 µM (inactive) in test [13]; > 100 µM (inactive) in test [7]; > 100 µM (inactive) in test [8]; 17.5 µM (inactive) in test [14]; > 100 µM (inactive) in test [9]; 65.3 µM (inactive) in test [10]. The GI50 in test [12] was 88.5 µM (inactive).
In the case of `COc1cc([C@@H]2c3cc4c(cc3C(N)C3COC(=O)[C@@H]32)OCO4)cc(OC)c1O` (stereo partly specified), the GI50 in [1] was 0.304 µM (active); in test [2] it was 0.13 µM (active); in [4], 0.049 µM (active); in [5], 0.301 µM (active); in test [6], 0.189 µM (active); in [8], 0.232 µM (active). For the same compound, the GI50 in test [14] is 0.277 µM (active); in test [9] it was 0.695 µM (active); in [10], 0.146 µM (active); in test [11] it was 0.0624 µM (active); in test [12] it was 0.401 µM (active).
Turning to `COc1ccc(/C=C2\C(=O)N(NC(C)=O)c3ccccc32)cc1`, the GI50 in test [1] is > 100 µM (inactive); in test [2], > 100 µM (inactive); in test [5], 95.9 µM (inactive); in test [6], > 100 µM (inactive); in test [13] it was > 100 µM (inactive); in [7], 87.9 µM (inactive). Besides, the GI50 in test [8] was > 100 µM (inactive); in test [15], > 100 µM (inactive); in test [14], 37.4 µM (inactive); in test [9], 37.4 µM (inactive); in [10] it was > 100 µM (inactive); in test [11], > 100 µM (inactive). Moreover, the GI50 in test [12] was 46.5 µM (inactive).
As to `COc1cc2c(cc1O)[C@@]1(Cc3ccc(OC)c(OC)c3)CCC(=O)N1CC2`, the GI50 in [1] was > 100 µM (inactive); in [2] it was > 100 µM (inactive); in test [4], > 100 µM (inactive); in test [5], > 10 µM (inactive); in test [6] it was > 100 µM (inactive); in [7], > 100 µM (inactive). Further, the GI50 was > 100 µM (inactive) in test [8]; > 100 µM (inactive) in [15]; > 100 µM (inactive) in test [14]; 63.2 µM (inactive) in test [9]; > 100 µM (inactive) in [10]; > 100 µM (inactive) in test [11]. The GI50 in [12] was > 100 µM (inactive).
As to `NC(CCCNc1cccc(O)c1)C(=O)O` (stereo unspecified), the GI50 in test [1], in test [2], in [3], in [4], in [5] and in test [13] was > 100 µM (inactive) in each case. Moreover, the GI50 in test [8], in [15], in test [14], in [9], in test [10] and in [11] was > 100 µM (inactive) in each case. The GI50 in test [12] is > 100 µM (inactive).
In the case of `CC1CCN(CCC(=O)CC(c2ccccc2)c2c(O)c3ccccc3oc2=O)CC1` (stereo unspecified), the GI50 in test [1], in test [2], in [3], in [4], in test [5] and in test [6] was > 100 µM (inactive) each time. The GI50 in [13], in [7], in test [8], in [14], in test [9] and in test [10] was > 100 µM (inactive) throughout. Further, the GI50 in [11] and in test [12] was > 100 µM (inactive) each time.
For `CCN(CC)CCC1CC/C(=C\c2ccc(OC)cc2)C1=O` (stereo unspecified), the GI50 is 18 µM (inactive) in test [2]; 60.7 µM (inactive) in [3]; 42.3 µM (inactive) in [4]; > 100 µM (inactive) in [5]; > 100 µM (inactive) in [6]; > 100 µM (inactive) in [13]. Besides, the GI50 in [7] was > 100 µM (inactive); in test [8], 32 µM (inactive); in [15] it was > 100 µM (inactive); in [14], 40.9 µM (inactive); in [9], 58.1 µM (inactive); in [10] it was > 100 µM (inactive). In addition, the GI50 in test [11] and in test [12] was > 100 µM (inactive) in each case.
Regarding `Cc1ccc(/C=C/C(=O)CCN(C)C)cc1`, the GI50 in [1] is 21.8 µM (inactive); in [2], 16 µM (inactive); in test [4], 23.1 µM (inactive); in test [5], 16.6 µM (inactive); in test [6] it was 16.9 µM (inactive); in test [7], 4.62 µM (inactive). The GI50 in [8] is 14.7 µM (inactive); in [15] it was 33.8 µM (inactive); in test [14], 19.3 µM (inactive); in test [9], 18.3 µM (inactive); in [10], 18.5 µM (inactive); in test [11], 33 µM (inactive). Further, the GI50 in test [12] was 16.5 µM (inactive).
Regarding `CC(C)Cc1cc(CCC(=O)Nc2ccccc2[N+](=O)[O-])nc(NC#N)n1`, the GI50 in test [1], in [2], in test [3], in test [4], in [5] and in test [6] was > 100 µM (inactive) throughout. The GI50 in test [7], in test [8], in test [15], in test [14], in [9] and in test [10] was > 100 µM (inactive) throughout. The GI50 in [11] and in test [12] was > 100 µM (inactive) throughout.
For `C[C@]1(CO)CCC[C@@]2(C)C1CC[C@H]1CC3C[C@]12CC[C@]3(C)O` (stereo partly specified), the GI50 in test [1] is 19 µM (inactive); in test [2] it was 36.4 µM (inactive); in [3], 16.3 µM (inactive); in [4] it was 46.7 µM (inactive); in test [5] it was > 100 µM (inactive); in test [6], 57.7 µM (inactive). For the same compound, the GI50 in test [7] is > 100 µM (inactive); in test [8], 54.2 µM (inactive); in test [15] it was > 100 µM (inactive); in test [14], 17.3 µM (inactive); in [9] it was > 10 µM (inactive); in test [10] it was 74.6 µM (inactive). In addition, the results for the GI50 in test [11] and in [12] were > 100 µM (inactive) and 37.5 µM (inactive), respectively.
For `CCOC(=O)Oc1c(OC)cc(C(=O)NC2CCc3cc(OC)c(OC)c(OC)c3-c3ccc(SC)c(=O)cc32)cc1OC` (stereo unspecified), the GI50 in test [1] is 0.164 µM (active); in test [2] it was 0.0439 µM (active); in test [3], < 0.007 µM (active); in [5], 0.0419 µM (active); in test [6], 0.0245 µM (active); in test [13] it was 0.0466 µM (active). Moreover, the GI50 in test [7] is 0.0378 µM (active); in test [8] it was 0.0743 µM (active); in test [9] it was 1.5 µM (inactive); in [10], 0.537 µM (active); in [11], 0.145 µM (active); in test [12], 0.474 µM (active).
Take `O=C1CCCN(c2ccccc2)N1`: the GI50 in test [1], in test [3], in test [4], in test [5], in test [6] and in test [13] was > 100 µM (inactive) in each case. Besides, the GI50 in test [7], in test [8], in test [15], in [14], in test [9] and in test [10] was > 100 µM (inactive) in each case. Besides, the GI50 in [11] was > 100 µM (inactive).
Regarding `COc1cc2c[n+](C)c3c4cc(OC)c(OC)cc4c(OCCCCCCCCOc4cc5c6cc(OC)c(OC)cc6c[n+](C)c5c5cc(OC)c(OC)cc45)cc3c2cc1OC`, the GI50 in test [1] was > 100 µM (inactive); in [3], > 100 µM (inactive); in test [4], > 100 µM (inactive); in test [5] it was > 100 µM (inactive); in test [6] it was 51.4 µM (inactive); in [13], > 100 µM (inactive). For the same compound, the GI50 was 72.8 µM (inactive) in test [7]; > 100 µM (inactive) in [8]; > 100 µM (inactive) in test [15]; 22.3 µM (inactive) in test [14]; > 100 µM (inactive) in test [9]; > 100 µM (inactive) in test [10]. Further, the GI50 in test [11] and in test [12] was > 100 µM (inactive) throughout.
